Values joined by “and” are separate entries in the source; they are usually repeats but may differ in a detail not shown here. Equal entries are not always repeated.
Experiments:
Test in all cases: biochemical
[1] = target: T1, Plasmodium falciparum protein kinase 6 (PK6) (Plasmodium falciparum, UniProt Q8IDW1); details: hits below 1 uM; read-out: PK6 IC50
T1 construct: 6-Histidine (N); made in house
T1 sequence (Q8IDW1 1-305): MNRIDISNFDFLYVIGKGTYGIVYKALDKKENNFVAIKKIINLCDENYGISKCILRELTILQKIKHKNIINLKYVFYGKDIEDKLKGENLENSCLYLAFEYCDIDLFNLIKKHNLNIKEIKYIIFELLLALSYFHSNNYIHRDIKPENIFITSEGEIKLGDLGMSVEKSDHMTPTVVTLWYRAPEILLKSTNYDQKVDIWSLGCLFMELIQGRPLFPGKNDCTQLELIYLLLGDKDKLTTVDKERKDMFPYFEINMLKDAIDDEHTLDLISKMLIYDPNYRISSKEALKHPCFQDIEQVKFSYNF

[2] = target: TNK2 (Homo sapiens, UniProt Q07912)
[3] = target: T2, NLK (Homo sapiens, UniProt Q9UBE8)
T2 sequence (Q9UBE8 1-527): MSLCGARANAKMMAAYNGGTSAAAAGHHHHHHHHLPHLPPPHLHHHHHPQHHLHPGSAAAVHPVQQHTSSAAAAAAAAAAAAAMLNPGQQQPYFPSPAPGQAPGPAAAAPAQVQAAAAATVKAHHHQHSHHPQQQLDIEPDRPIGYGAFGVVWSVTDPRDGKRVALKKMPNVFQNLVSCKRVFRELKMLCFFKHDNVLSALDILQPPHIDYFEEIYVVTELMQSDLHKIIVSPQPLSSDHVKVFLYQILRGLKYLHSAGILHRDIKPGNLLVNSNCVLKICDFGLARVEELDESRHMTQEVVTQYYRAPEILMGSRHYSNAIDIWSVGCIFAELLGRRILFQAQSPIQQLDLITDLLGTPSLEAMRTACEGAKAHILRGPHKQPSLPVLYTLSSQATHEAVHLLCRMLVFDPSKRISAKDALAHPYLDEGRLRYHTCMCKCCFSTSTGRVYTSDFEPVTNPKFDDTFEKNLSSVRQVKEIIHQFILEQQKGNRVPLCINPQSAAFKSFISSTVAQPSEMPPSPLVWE

[4] = target: MAPK7 (Homo sapiens, UniProt Q13164)
[5] = target: T3, TAOK2 (Homo sapiens, UniProt Q9UL54)
T3 sequence (Q9UL54 1-1235): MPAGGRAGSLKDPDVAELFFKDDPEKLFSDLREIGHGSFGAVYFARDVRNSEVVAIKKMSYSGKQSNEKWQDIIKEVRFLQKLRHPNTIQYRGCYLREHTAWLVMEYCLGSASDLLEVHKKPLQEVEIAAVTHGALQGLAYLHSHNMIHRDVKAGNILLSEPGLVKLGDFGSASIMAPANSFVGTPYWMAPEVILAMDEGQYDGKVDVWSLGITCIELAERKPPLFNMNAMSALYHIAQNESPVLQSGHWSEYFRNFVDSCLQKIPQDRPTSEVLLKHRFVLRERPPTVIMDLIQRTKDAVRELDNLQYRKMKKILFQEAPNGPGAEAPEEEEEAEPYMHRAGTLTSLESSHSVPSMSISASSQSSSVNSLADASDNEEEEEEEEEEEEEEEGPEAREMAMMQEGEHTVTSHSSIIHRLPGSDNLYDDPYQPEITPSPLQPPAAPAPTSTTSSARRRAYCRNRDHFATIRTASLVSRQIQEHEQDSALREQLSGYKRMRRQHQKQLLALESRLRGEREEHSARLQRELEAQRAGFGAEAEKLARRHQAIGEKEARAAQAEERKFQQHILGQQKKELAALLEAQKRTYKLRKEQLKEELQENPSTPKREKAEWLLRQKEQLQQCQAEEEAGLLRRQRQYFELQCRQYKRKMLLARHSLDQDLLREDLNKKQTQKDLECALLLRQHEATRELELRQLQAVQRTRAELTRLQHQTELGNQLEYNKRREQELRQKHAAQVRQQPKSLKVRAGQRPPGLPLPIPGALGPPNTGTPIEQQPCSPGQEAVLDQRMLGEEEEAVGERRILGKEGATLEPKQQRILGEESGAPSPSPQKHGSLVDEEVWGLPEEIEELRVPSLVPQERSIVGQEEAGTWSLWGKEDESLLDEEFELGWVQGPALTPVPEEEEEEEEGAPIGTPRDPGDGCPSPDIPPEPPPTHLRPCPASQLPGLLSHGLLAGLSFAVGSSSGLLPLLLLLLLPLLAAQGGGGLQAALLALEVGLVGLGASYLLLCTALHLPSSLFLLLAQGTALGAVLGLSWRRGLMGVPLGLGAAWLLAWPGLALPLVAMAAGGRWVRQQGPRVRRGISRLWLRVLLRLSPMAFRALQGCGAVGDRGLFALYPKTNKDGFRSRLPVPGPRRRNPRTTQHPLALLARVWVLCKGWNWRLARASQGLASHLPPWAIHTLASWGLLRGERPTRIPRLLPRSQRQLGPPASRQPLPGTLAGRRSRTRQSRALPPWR

[6] = target: CDK10 (Homo sapiens, UniProt Q15131)
[7] = target: PRKDC (Homo sapiens, UniProt P78527)
[8] = target: T4, TGFBR1 (Homo sapiens, UniProt P36897)
T4 sequence (P36897 1-503): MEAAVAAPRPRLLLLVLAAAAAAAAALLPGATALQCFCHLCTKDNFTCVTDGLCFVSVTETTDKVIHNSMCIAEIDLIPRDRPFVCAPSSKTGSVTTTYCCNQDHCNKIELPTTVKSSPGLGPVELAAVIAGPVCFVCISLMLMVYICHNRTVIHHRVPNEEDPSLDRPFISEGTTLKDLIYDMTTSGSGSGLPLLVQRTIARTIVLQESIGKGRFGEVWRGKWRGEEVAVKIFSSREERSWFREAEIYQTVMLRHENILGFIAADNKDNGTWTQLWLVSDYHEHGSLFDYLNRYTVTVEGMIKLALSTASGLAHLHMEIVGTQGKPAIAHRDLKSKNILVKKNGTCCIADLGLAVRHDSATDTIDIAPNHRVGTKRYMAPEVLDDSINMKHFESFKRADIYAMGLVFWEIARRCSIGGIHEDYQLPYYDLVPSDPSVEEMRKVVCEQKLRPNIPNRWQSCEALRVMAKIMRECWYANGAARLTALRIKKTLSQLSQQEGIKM

[9] = target: MAP4K4 (Homo sapiens, UniProt O95819)
Sequence of MAP4K4 (O95819 whole entry): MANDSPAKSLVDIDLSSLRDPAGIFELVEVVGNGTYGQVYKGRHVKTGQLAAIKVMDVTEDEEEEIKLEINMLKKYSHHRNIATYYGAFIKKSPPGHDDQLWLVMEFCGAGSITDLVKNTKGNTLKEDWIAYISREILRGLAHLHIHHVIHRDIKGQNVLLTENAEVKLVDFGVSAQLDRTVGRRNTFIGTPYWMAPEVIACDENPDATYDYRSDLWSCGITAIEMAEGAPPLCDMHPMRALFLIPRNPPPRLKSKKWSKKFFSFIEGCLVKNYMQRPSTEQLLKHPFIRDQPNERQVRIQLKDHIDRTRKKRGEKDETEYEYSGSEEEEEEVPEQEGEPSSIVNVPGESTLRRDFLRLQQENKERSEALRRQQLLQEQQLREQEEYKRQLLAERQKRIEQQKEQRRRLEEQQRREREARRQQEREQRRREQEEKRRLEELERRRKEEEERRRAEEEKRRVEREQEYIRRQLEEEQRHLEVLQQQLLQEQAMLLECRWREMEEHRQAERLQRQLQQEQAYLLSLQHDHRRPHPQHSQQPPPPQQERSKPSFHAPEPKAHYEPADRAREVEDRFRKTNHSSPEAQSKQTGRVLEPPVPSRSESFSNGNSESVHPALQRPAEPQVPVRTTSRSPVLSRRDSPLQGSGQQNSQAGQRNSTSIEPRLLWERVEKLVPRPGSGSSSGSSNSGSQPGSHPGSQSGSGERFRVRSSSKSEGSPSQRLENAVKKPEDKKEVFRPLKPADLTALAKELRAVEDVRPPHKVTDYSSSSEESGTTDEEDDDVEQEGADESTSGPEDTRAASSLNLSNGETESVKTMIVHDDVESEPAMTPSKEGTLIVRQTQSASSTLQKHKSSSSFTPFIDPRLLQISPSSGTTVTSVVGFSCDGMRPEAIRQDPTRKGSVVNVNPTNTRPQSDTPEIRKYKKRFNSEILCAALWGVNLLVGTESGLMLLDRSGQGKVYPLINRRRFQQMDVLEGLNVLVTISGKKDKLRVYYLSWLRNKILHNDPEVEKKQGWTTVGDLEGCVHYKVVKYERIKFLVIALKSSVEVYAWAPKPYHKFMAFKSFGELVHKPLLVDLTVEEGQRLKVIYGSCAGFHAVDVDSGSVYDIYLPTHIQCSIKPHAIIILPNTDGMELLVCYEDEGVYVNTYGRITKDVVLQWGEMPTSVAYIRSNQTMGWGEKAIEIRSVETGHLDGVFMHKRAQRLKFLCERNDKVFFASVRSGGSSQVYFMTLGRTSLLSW

Sequence of MAPK7 (Q13164 whole entry): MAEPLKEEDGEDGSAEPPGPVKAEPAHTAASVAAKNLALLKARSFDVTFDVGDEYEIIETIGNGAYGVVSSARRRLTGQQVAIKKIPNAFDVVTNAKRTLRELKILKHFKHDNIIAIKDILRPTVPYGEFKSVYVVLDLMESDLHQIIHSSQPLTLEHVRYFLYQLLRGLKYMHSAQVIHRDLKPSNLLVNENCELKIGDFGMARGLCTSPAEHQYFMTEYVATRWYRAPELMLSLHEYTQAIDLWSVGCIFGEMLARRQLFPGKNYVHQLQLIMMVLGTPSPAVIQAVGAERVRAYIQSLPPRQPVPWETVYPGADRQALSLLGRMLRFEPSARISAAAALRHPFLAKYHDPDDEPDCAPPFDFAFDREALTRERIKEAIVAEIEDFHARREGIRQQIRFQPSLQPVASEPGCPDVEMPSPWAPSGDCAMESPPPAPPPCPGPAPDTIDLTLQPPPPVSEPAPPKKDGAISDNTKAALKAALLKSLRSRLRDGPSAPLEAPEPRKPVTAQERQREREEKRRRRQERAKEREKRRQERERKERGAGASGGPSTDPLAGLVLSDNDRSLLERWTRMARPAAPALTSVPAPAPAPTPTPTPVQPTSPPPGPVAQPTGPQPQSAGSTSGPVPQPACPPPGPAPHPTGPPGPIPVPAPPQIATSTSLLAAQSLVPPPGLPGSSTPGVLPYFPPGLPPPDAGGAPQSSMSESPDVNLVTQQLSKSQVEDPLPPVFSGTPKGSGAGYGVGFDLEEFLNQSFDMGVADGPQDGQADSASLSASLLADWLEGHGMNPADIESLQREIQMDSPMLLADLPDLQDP
Sequence of CDK10 (Q15131 whole entry): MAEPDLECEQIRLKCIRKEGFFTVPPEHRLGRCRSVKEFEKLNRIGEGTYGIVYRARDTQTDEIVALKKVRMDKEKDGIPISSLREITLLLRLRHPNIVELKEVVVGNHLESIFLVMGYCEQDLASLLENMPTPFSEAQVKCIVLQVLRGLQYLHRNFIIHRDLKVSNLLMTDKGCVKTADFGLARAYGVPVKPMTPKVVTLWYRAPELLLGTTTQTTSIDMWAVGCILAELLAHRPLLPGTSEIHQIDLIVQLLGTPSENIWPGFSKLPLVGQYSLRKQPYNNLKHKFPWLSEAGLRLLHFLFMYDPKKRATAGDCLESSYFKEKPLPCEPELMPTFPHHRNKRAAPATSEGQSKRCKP
Sequence of TNK2 (Q07912 whole entry): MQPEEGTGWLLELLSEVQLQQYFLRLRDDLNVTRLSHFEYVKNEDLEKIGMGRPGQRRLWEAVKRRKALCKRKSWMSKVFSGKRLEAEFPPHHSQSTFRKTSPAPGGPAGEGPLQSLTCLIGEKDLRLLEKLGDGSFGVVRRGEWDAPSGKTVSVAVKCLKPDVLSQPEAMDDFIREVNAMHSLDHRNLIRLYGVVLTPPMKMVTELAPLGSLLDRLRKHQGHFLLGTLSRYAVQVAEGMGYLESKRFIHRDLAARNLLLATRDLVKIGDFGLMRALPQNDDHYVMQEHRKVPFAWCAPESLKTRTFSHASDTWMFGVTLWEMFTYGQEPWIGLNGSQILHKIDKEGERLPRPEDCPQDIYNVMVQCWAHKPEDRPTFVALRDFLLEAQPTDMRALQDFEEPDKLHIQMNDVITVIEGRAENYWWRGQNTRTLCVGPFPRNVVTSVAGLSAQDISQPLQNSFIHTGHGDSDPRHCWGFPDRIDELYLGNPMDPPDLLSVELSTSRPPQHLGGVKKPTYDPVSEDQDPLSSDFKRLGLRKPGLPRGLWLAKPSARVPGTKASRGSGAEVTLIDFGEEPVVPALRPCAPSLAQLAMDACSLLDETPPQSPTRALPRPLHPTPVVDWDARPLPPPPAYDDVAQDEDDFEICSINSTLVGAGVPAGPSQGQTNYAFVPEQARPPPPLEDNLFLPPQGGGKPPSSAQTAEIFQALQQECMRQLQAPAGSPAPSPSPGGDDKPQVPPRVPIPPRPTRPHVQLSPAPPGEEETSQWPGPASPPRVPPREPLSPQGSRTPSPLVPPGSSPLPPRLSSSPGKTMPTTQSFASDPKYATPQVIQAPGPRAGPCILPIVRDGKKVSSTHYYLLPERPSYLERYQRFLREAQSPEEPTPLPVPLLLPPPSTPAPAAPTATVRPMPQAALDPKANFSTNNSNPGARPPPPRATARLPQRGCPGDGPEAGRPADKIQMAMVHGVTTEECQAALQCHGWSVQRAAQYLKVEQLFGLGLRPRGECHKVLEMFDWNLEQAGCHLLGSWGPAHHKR

Compound | IC50 [1] [nM] | IC50 [2] [nM] | IC50 [3] | IC50 [4] | IC50 [5] [nM] | IC50 [6] [nM] | IC50 [7] [µM] | IC50 [8] | IC50 [9]
CN1CCN(c2ccc(Nc3ncc(C#N)c(Nc4ccccc4C(N)=O)n3)cc2)CC1.Cl [TCMDC-134116] | 89 | 160 | 1600 nM and 1500 nM | 280 nM and 380 nM | 400 | – | – | – | –
Cl.NCC1(c2nc(-c3ccc(Cl)c(O)c3)c(-c3ccncc3)[nH]2)CCCCC1 [TCMDC-141154] | – | > 20000 | – | 1100 nM and 1900 nM | – | > 20000 | > 20 | 95 nM and 140 nM | 1500 nM and 950 nM
CN(C)CC(O)COc1ccc(Nc2ncc([N+](=O)[O-])c(Nc3ccccc3O)n2)cc1.O=C(O)C(F)(F)F (stereo not drawn) [TCMDC-141399] | 67 | – | > 20000 nM | – | > 20000 | 1600 | > 20 | > 20000 nM | 1800 nM and 1200 nM

Source: publication PMC4774911, “Biochemical Screening of Five Protein Kinases from Plasmodium falciparum against 14,000 Cell-Active Compounds” (PLoS ONE, 2016)
